# Reference: ChEMBL document CHEMBL5131501, “Discovery and evaluation of chalcone derivatives as novel potential anti-Toxoplasma gondii agents” (Eur J Med Chem, 2022)
# Activity calls are given as the source filed them. No cut-off for these calls is given here.
# System: Toxoplasma gondii
# Assay: Anti-tachyzoite activity against Toxoplasma gondii RH infected in kunming mouse model assessed as decrease in serum ALT level at 100 mg/kg, ip administered daily for 4 days after 4 hrs post infection
# Type: functional, organism-based
# Conditions: time 4.0 day
row,SMILES,Activity
1,CO[C@@H]1[C@@H](O[C@@H]2O[C@H](C)[C@@H](O[C@H]3C[C@@](C)(O)[C@@H](O)[C@H](C)O3)[C@H](N(C)C)[C@H]2O)[C@@H](CC=O)C[C@@H](C)[C@@H](O[C@H]2CC[C@H](N(C)C)[C@@H](C)O2)/C=C/C=C/C[C@@H](C)OC(=O)C[C@H]1OC(C)=O,Active

# System: Toxoplasma gondii
# Assay: Anti-tachyzoite activity against Toxoplasma gondii RH infected in kunming mouse model assessed as decrease in serum AST level at 100 mg/kg, ip administered daily for 4 days after 4 hrs post infection
# Type: functional, organism-based
# Conditions: time 4.0 day
row,SMILES,Activity
1,CO[C@@H]1[C@@H](O[C@@H]2O[C@H](C)[C@@H](O[C@H]3C[C@@](C)(O)[C@@H](O)[C@H](C)O3)[C@H](N(C)C)[C@H]2O)[C@@H](CC=O)C[C@@H](C)[C@@H](O[C@H]2CC[C@H](N(C)C)[C@@H](C)O2)/C=C/C=C/C[C@@H](C)OC(=O)C[C@H]1OC(C)=O,Active

# System: Toxoplasma gondii
# Assay: Anti-tachyzoite activity against Toxoplasma gondii RH infected in human HFF cells assessed as mortality rate at 50 uM incubated for 2 hrs by trypan blue staining based light microscopic analysis
# Type: functional, organism-based
# Conditions: not given
row,SMILES,Activity
1,Nc1ccc(C(=O)CCc2ccc(Cl)c(Cl)c2)cc1,Active
2,CCNc1ccc(C(=O)/C=C/c2ccccc2Br)cc1,Active
3,CC(=O)Nc1ccc(C(=O)/C=C/c2ccc(Cl)c(Cl)c2)cc1,Active
4,O=C(/C=C/c1ccc(Cl)c(Cl)c1)c1cc(F)cc(F)c1,Active
5,COc1cccc(/C=C/C(=O)c2cccc(NC(C)=O)c2)c1OC,Active
6,CC(C)Nc1ccc(C(=O)/C=C/c2ccc(Cl)c(Cl)c2)cc1,Active
7,COc1ccc(C(=O)/C=C/c2ccc(O)cc2)cc1,Active
8,COc1cccc(/C=C/C(=O)c2ccc(NC(C)=O)cc2)c1OC,Active
9,Nc1ccc(C(=O)CCc2ccccc2Br)cc1,Active
10,CC(C)Nc1ccc(C(=O)/C=C/c2ccccc2Br)cc1,Active
11,COc1ccc(C(=O)/C=C/c2ccccc2OC)cc1O,Active
12,COc1ccc(C(=O)/C=C/c2ccccc2Cl)cc1,Active
13,COc1cccc(CCC(=O)c2cccc(N)c2)c1OC,Active
14,CCNc1ccc(C(=O)/C=C/c2cccc(OC)c2OC)cc1,Active
15,COc1cccc(/C=C/C(=O)c2cccc(NC(C)C)c2)c1OC,Active
16,O=C(/C=C/c1ccccc1Br)c1cc(F)cc(F)c1,Active
17,CCNc1cccc(C(=O)/C=C/c2cccc(OC)c2OC)c1,Active
18,CCNc1ccc(C(=O)/C=C/c2ccc(Cl)c(Cl)c2)cc1,Active
19,COc1cccc(CCC(=O)c2ccc(N)cc2)c1OC,Active
20,COc1ccc(C(=O)/C=C/c2ccc(O)cc2)cc1OC,Active
21,O=C(/C=C/c1ccccc1Cl)c1cc(F)cc(F)c1,Active
22,CC(=O)Nc1ccc(C(=O)/C=C/c2ccccc2Br)cc1,Active
23,COc1cccc(/C=C/C(=O)c2ccc(NC(C)C)cc2)c1OC,Active
24,COc1ccc(C(=O)/C=C/c2ccccc2Cl)cc1O,Active

# System: Toxoplasma gondii
# Assay: Anti-tachyzoite activity against Toxoplasma gondii RH infected in Kunming mouse model assessed as inhibition of growth rate in peritoneal fluid at 100 mg/kg, ip administered daily for 4 days after 4 hrs post infection
# Type: functional
# Parameters: scale not given: the % may be the effect or the level left
# Conditions: time 4 day
row,SMILES,Activity [%]
1,CO[C@@H]1[C@@H](O[C@@H]2O[C@H](C)[C@@H](O[C@H]3C[C@@](C)(O)[C@@H](O)[C@H](C)O3)[C@H](N(C)C)[C@H]2O)[C@@H](CC=O)C[C@@H](C)[C@@H](O[C@H]2CC[C@H](N(C)C)[C@@H](C)O2)/C=C/C=C/C[C@@H](C)OC(=O)C[C@H]1OC(C)=O,74.6

# System: Toxoplasma gondii
# Assay: Anti-tachyzoite activity against Toxoplasma gondii RH infected in kunming mouse model assessed as decrease in malondialdehyde lipid peroxidation in liver at 100 mg/kg, ip administered daily for 4 days after 4 hrs post infection
# Type: functional, organism-based
# Conditions: time 4.0 day
row,SMILES,Activity
1,CO[C@@H]1[C@@H](O[C@@H]2O[C@H](C)[C@@H](O[C@H]3C[C@@](C)(O)[C@@H](O)[C@H](C)O3)[C@H](N(C)C)[C@H]2O)[C@@H](CC=O)C[C@@H](C)[C@@H](O[C@H]2CC[C@H](N(C)C)[C@@H](C)O2)/C=C/C=C/C[C@@H](C)OC(=O)C[C@H]1OC(C)=O,Active
